Test results as given in PubChem BioAssay (NCI).
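Each compound was tested at five concentrations against cells in 96-well plates for 48 hours. GI50 = concentration required for 50% inhibition of growth. TGI: total growth inhibition.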

Assays:
Experiment in all cases: inhibition of tumour cell growth, NCI panel, 48 h
BT-549 breast = tested on: BT-549 breast
MDA-MB-231 breast = tested on: MDA-MB-231 breast
MOLT-4 leukemia = tested on: MOLT-4 leukemia
SK-OV-3 ovarian = tested on: SK-OV-3 ovarian
EKVX NSCLC = tested on: EKVX NSCLC
HCT-15 colon = tested on: HCT-15 colon
MCF7 breast = tested on: MCF7 breast
MDA-N = tested on: MDA-N
HOP-62 NSCLC = tested on: HOP-62 NSCLC
HS 578T breast = tested on: HS 578T breast
HOP-92 NSCLC = tested on: HOP-92 NSCLC

Row | Compound | TGI (BT-549 breast) | TGI (MDA-MB-231 breast) | TGI (MOLT-4 leukemia) | TGI (SK-OV-3 ovarian) | TGI (EKVX NSCLC) | TGI (HCT-15 colon) | TGI (MCF7 breast) | TGI (MDA-N) | TGI (HOP-62 NSCLC) | TGI (HS 578T breast) | TGI (HOP-92 NSCLC) | GI50 (HS 578T breast) | GI50 (MDA-MB-231 breast) | GI50 (HOP-92 NSCLC) | GI50 (EKVX NSCLC) | GI50 (HCT-15 colon) | GI50 (MCF7 breast) | GI50 (HOP-62 NSCLC)
1 | Nc1ccc(S(=O)(=O)Nc2nccs2)cc1 | > 100 µM | > 100 µM | > 100 µM | > 100 µM | > 100 µM | > 100 µM | > 100 µM | > 100 µM | > 100 µM | – | – | – | – | – | – | – | – | –
2 | Cc1ccc2c(c1)C(=O)C1(C2)Cc2cccc(C)c2C1=O (stereo unspecified) | – | > 100 µM | > 100 µM | > 100 µM | > 100 µM | > 100 µM | > 100 µM | > 100 µM | > 100 µM | > 100 µM | > 100 µM | – | – | – | – | – | – | –
3 | O=C(N/N=C/c1cc(Br)cc(Br)c1[O-])c1ccccc1O.O=C(N/N=C/c1cc(Br)cc(Br)c1[O-])c1ccccc1O.[Cu+2] | – | – | 2.54 µM | 1.12 µM | – | 1.77 µM | – | – | 0.845 µM | – | 1.28 µM | – | – | – | – | – | – | –
4 | C=C(Cl)C(C)(Cl)CCC(Br)C(C)(C)Cl (stereo unspecified) | 47.2 µM | 28.7 µM | > 100 µM | 39.2 µM | > 100 µM | – | 30.8 µM | 33 µM | 53.4 µM | 57.8 µM | 36.5 µM | – | – | – | – | – | – | –
5 | COC1C=COC2(C)Oc3c(C)c(O)c4c(O)c(c(C5SCCS5)c(O)c4c3C2=O)NC(=O)C(C)=C/C=C\C(C)C2OC(C)(C)OC(C2C)C(C)C(OC(C)=O)C1C (stereo unspecified) | 9.26 µM | 45.7 µM | > 100 µM | > 100 µM | – | 38.4 µM | 7.77 µM | – | 74.4 µM | 63.3 µM | 24.9 µM | – | – | – | – | – | – | –
6 | NNC(=O)CSc1nc2ccccc2c(=O)n1N | > 100 µM | 61.2 µM | > 100 µM | – | > 100 µM | > 100 µM | > 100 µM | > 100 µM | – | 98.8 µM | 57.7 µM | – | – | – | – | – | – | –
7 | COc1ccc(N2C(=O)CSC2c2c[nH]c3ccccc23)cc1 (stereo unspecified) | > 100 µM | > 100 µM | > 100 µM | > 100 µM | > 100 µM | > 100 µM | > 100 µM | > 100 µM | > 100 µM | – | > 100 µM | – | – | – | – | – | – | –
8 | CC(C)=CCNc1ncnc2c1ncn2CCC#N | > 100 µM | > 100 µM | > 100 µM | > 100 µM | – | > 100 µM | > 100 µM | > 100 µM | > 100 µM | > 100 µM | > 100 µM | – | – | – | – | – | – | –
9 | CC(C)CC(O)P(=O)(O)O (stereo unspecified) | – | > 100 µM | > 100 µM | > 100 µM | > 100 µM | – | > 100 µM | > 100 µM | > 100 µM | – | – | – | – | – | – | – | – | –
10 | CSc1cnc2ccccc2c1SC1CN(Cc2ccccc2)c2ccccc2C1=O (stereo unspecified) | > 100 µM | > 100 µM | > 100 µM | > 100 µM | > 100 µM | > 100 µM | > 100 µM | > 100 µM | > 100 µM | – | > 100 µM | – | – | – | – | – | – | –
11 | OCc1ccc(C2CC(c3ccco3)=NN2c2ccccc2)o1 (stereo unspecified) | – | – | > 100 µM | – | > 100 µM | > 100 µM | – | – | > 100 µM | – | – | – | – | – | – | – | – | –
12 | C=C1CN2CC(=C)CN(C1)CS(=O)(=O)N1CC(=C)CN(CC(=C)C1)S(=O)(=O)N1CC(=C)CN(CC(=C)C1)S(=O)(=O)C2 | > 100 µM | 92.1 µM | > 100 µM | – | > 100 µM | > 100 µM | > 100 µM | > 100 µM | 53.7 µM | 86.1 µM | > 100 µM | – | – | – | – | – | – | –
13 | Cc1ccc(S(=O)(=O)NC(=O)N[C@@H](Cc2cnc[nH]2)C(=O)O)cc1 | > 100 µM | > 100 µM | > 100 µM | > 100 µM | – | > 100 µM | > 100 µM | > 100 µM | > 100 µM | > 100 µM | > 100 µM | – | – | – | – | – | – | –
14 | COc1c(C(C)C)cc2c3c1OC(=O)[C@@]31CCCC(C)(C)C1CC2 (stereo partly specified) | – | – | > 100 µM | 76.1 µM | 65.3 µM | > 100 µM | – | – | > 100 µM | – | – | – | – | – | – | – | – | –
15 | O=C(CN(c1ccccc1)c1ccccc1)n1nnc2ccccc21 | – | – | > 100 µM | > 100 µM | > 100 µM | > 100 µM | – | – | > 100 µM | – | – | – | – | – | – | – | – | –
16 | CCC(=O)ONC(=O)Cn1ccc([N+](=O)[O-])n1 | – | > 100 µM | > 100 µM | > 100 µM | > 100 µM | – | > 100 µM | > 100 µM | > 100 µM | > 100 µM | > 100 µM | – | – | – | – | – | – | –
17 | Cc1cc(NCc2ccccc2)c2ccccc2[n+]1CCCCCCCCCC[n+]1c(C)cc(NCc2ccccc2)c2ccccc21 | 1.98 µM | 1.74 µM | – | 6.85 µM | 13.4 µM | 5.88 µM | 1.91 µM | 1.4 µM | – | 11.6 µM | 2.25 µM | – | – | – | – | – | – | –
18 | COc1ccc(-c2nn(-c3ccc(NC(=O)Nc4cc(C(F)(F)F)cc(C(F)(F)F)c4)cc3)cc2-c2ccncc2)cc1Cl | – | 4.44 µM | – | – | > 100 µM | > 100 µM | 9.72 µM | – | 15.1 µM | 6.76 µM | 4.35 µM | 1.53 µM | 1.81 µM | 1.06 µM | 3.22 µM | 2.88 µM | 2.86 µM | 3.68 µM
19 | COc1cccc(/C=N/n2c(C)n[nH]c2=O)c1 | > 100 µM | > 100 µM | > 100 µM | > 100 µM | > 100 µM | > 100 µM | > 100 µM | > 100 µM | > 100 µM | 43.8 µM | – | – | – | – | – | – | – | –
20 | O=C(O)/C=c1/c2ccccc2n2nc3ccccc3c12 | > 100 µM | > 100 µM | 69.6 µM | 65.7 µM | > 100 µM | > 100 µM | > 100 µM | > 100 µM | > 100 µM | 78.8 µM | – | – | – | – | – | – | – | –
21 | COc1cc(OC)c(C2c3cc4c(cc3OC(N3CCCC3)C2C)OCO4)c(OC)c1 (stereo unspecified) | – | – | 31.6 µM | – | > 100 µM | 52.3 µM | 48.1 µM | 35.4 µM | 40.1 µM | 18.1 µM | – | – | – | – | – | – | – | –
22 | N#CC1=C(N)N(c2ccccc2)C(c2ccccc2)C1(C#N)C#N (stereo unspecified) | 37 µM | 29.8 µM | 31.7 µM | 78.4 µM | 43.8 µM | 51.1 µM | 31.7 µM | 41 µM | 36.8 µM | > 100 µM | – | – | – | – | – | – | – | –
23 | CC(=O)OCC1OC(n2c3c(cc(C#N)c2=S)CCCCC3)C(OC(C)=O)C(OC(C)=O)C1OC(C)=O (stereo unspecified) | > 100 µM | > 100 µM | > 100 µM | – | – | > 100 µM | > 100 µM | > 100 µM | > 100 µM | > 100 µM | > 100 µM | – | – | – | – | – | – | –
